Measured values: patent publication US20040122058A1, “Use of specific compounds particularly kinase inhibitors for treating viral infections” (priority 2001, published 2004)

Columns and labels:
[1] = system: Marburg virus induced TNF-α release in primary human macrophages; type: cell-based
[2] = system: Ebola (EBO) virus infected peripheral blood mononuclear cells (PBMC); type: cell-based, human
[3] = system: bacterial LPS-induced TNF-α release; type: cell-based, human
[4] = system: Ebola virus induced TNF-α release in primary human macrophages; type: cell-based
[5] = system: Marburg (MBG) virus infected peripheral blood mononuclear cells (PBMC); type: cell-based, human
[6] = system: Ebola virus
[7] = system: Marburg virus
[8] = system: IL-1 beta release of Marburg virus infected VeroE6 cells
[9] = system: IL-1 beta release of Ebola virus infected VeroE6 cells

Compound	Marburg virus induced TNFα production [1]	virally induced TNF-α release [1]	TNF-α release [2]	bacterial LPS-induced TNF-α production [3]	bacterial LPS-induced TNF-α release [3]	Ebola virus induced TNFα production [4]	virally induced TNF-α release [4]	TNF-α release [5]	replication of Ebola virus (plaques) [6]	replication of Marburg virus (plaques) [7]	release of IL-1 beta to the supernatant [8]	release of IL-1 beta to the supernatant [9]	Marburg virus induced TNF-α release/production [1]	Ebola virus induced TNF-α release/production [4]
COc1cccc(-c2cc(=O)c3ccccc3o2)c1N [Compound 1, 2′-amino-3′-methoxyflavone]	inhibited very strongly and dose-dependently	inhibitory effects	dose-dependent inhibitory effect	no inhibitory effect at all	did not reduce	inhibited very strongly and dose-dependently	inhibitory effects	dose-dependent inhibitory effect	–	–	–	–	–	–
O=C(NOCC1CC1)c1ccc(F)c(F)c1Nc1ccc(I)cc1Cl [Compound 2, 2-(2-chloro-4-iodophenylamino)-N-cyclopropylmethoxy-3,4-difluorobenzamide]	inhibited very strongly and dose-dependently	inhibitory effects	inhibitory effect	no inhibitory effect at all	did not reduce	inhibited very strongly and dose-dependently	inhibitory effects	inhibitory effect	–	–	–	–	–	–
N#CC(=C(N)Sc1ccccc1N)C(C#N)=C(N)Sc1ccccc1N [Compound 3, 1,4-diamino-2,3-dicyano-1,4-bis(2-aminophenylthio)butadiene]	inhibited very strongly and dose-dependently	inhibitory effects	dose-dependent inhibitory effect	no inhibitory effect at all	did not reduce	inhibited very strongly and dose-dependently	inhibitory effects	dose-dependent inhibitory effect	does not have an obvious effect	does not have an obvious effect	dramatically reduces	dramatically reduces	–	–
Oc1ccc(-c2nc(-c3ccc(F)cc3)c(-c3ccncc3)[nH]2)cc1 [Compound 4]	–	–	–	no inhibitory effect at all	–	–	–	–	–	–	–	–	did not significantly inhibit	did not significantly inhibit
